Measured values as given in ChEMBL document CHEMBL4814066, “Amphiphilic peptide-based MMP3 inhibitors for intra-articular treatment of knee OA” (Bioorg Med Chem, 2021).
The source made the active and inactive calls. No cut-off for these calls is given here. Residues, ends and D or L forms follow the SMILES beside them.

Columns and labels:
[1] = Solubility in water at 1 mg/ml; assay type: physicochemical; settings: buffer
Stromelysin-1 = Stromelysin-1 (Homo sapiens, UniProt P08254); assay: Inhibition of human MMP3 catalytic subunit by fluorometric analysis
Sequence of Stromelysin-1 (P08254 whole entry): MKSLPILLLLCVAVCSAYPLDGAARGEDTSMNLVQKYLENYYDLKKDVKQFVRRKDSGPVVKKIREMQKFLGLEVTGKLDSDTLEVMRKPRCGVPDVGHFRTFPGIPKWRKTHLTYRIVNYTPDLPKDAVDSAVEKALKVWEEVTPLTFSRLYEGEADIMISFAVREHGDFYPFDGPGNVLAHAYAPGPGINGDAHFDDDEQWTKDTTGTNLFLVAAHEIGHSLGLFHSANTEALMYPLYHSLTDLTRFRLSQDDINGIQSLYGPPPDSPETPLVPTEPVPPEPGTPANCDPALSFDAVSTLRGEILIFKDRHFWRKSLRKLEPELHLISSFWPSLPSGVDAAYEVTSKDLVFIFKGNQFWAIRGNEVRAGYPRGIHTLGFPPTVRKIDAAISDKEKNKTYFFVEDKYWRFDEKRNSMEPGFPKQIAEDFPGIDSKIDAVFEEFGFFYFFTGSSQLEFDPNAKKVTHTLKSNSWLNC

Cartilage tissue [2] = assay: Antiinflammatory activity against bovine normal hyaline femoral condyles cartilage assessed as reduction in IL-1beta/OSM-induced collagen release at 6 to 127 uM incubated for 21 days with media replenishment for every 7 days relative to control; assay type: functional, tissue-based; settings: Bos taurus, dose 6-127 µM, time 21.0 day
[3] = Cytotoxicity against mouse BALB/3T3 cells clone A31 incubated for 24 hrs by Alamar blue assay; assay type: cell-based; settings: BALB/3T3 clone A31, 24 h
Cartilage tissue [4] = assay: Antiinflammatory activity against bovine normal hyaline femoral condyles cartilage assessed as reduction in IL-1beta/OSM-induced collagen release at 93 uM incubated for 21 days with media replenishment for every 7 days relative to control; assay type: functional, tissue-based; settings: Bos taurus, time 21.0 day

SMILES	solubility [1]	IC50 (Stromelysin-1)	Activity (Cartilage tissue [2])	IC50 [3]	Activity (Cartilage tissue [4])
CCCCCCCCC/C=C/CCCCCCCC(=O)N[C@@H](CS)C(=O)NCC(=O)N[C@@H](CCCNC(=N)N)C(=O)O	Insoluble	> 50 µM	–	–	–
CCCCCCCCNC(=O)C[C@H](NC(=O)CNC(=O)[C@H](CS)NC(=O)[C@@H](N)CCCNC(=N)N)C(N)=O (HELM PEPTIDE1{R.C.G.D.[am]}|CHEM1{[CCCCCCCCN[*:1]]}$PEPTIDE1,CHEM1,4:R3-1:R1$$$V2.0)	Insoluble	> 200 µM	–	–	–
CCCCCCCC(=O)N[C@@H](CS)C(=O)NCC(=O)N[C@@H](CCCNC(=N)N)C(=O)O (HELM PEPTIDE1{[CCCCCCCC(=O)[*:2]].C.G.R}$$$$V2.0)	Insoluble	4.4 µM	–	–	–
CCCCCCCCCCCC(=O)N[C@@H](CS)C(=O)NCC(=O)N[C@@H](CCCNC(=N)N)C(=O)N[C@@H](CCCCN)C(=O)O (HELM PEPTIDE1{[CCCCCCCCCCCC(=O)[*:2]].C.G.R.K}$$$$V2.0)	Soluble	3.2 µM	–	186 µM	Active
CCCCCCCCCCCC(=O)N[C@@H](CS)C(=O)NCC(=O)N[C@@H](CCCNC(=N)N)C(=O)O (HELM PEPTIDE1{[CCCCCCCCCCCC(=O)[*:2]].C.G.R}$$$$V2.0)	Insoluble	7 µM	–	–	–

Now from value to compound, other results behind:

solubility [1]	IC50 (Stromelysin-1)	SMILES	Activity (Cartilage tissue [2])	IC50 [3]	Activity (Cartilage tissue [4])
Soluble	95.3 µM	CC(=O)N[C@@H](CCCNC(=N)N)C(=O)N[C@@H](CS)C(=O)NCC(N)=O (Ac-Arg-Cys-Gly-NH2)	–	–	–
Soluble	> 50 µM	CC(=O)N[C@@H](CS)C(=O)NCC(=O)N[C@@H](CCCNC(=N)N)C(=O)N[C@@H](CCCCN)C(=O)O (Ac-CGRK-OH)	–	–	–
Insoluble	850 µM	CC(=O)N[C@@H](CS)C(=O)NCC(=O)N[C@@H](CCCNC(=N)N)C(=O)O (Ac-Cys-Gly-Arg-OH)	–	–	–
Soluble	10.2 µM	CC(=O)N[C@@H](CCCNC(=N)N)C(=O)N[C@@H](CS)C(=O)NCC(=O)N[C@H](C(N)=O)C(C)C (Ac-RCGV-NH2)	Active	253 µM	–
Soluble	173 µM	CC(C)[C@H](NC(=O)CNC(=O)[C@H](CS)NC(=O)[C@@H](N)CCCNC(=N)N)C(N)=O (H-RCGV-NH2)	–	–	–
Soluble	61.4 µM	CCCCCCCCNC(=O)C[C@H](NC(=O)CNC(=O)[C@H](CS)NC(=O)[C@H](CCCNC(=N)N)NC(C)=O)C(N)=O (HELM PEPTIDE1{[ac].R.C.G.D.[am]}|CHEM1{[CCCCCCCCN[*:1]]}$PEPTIDE1,CHEM1,5:R3-1:R1$$$V2.0)	–	–	–
Soluble	79.5 µM	CCCC[C@H](NC(=O)CNC(=O)[C@H](CS)NC(=O)[C@H](CCCNC(=N)N)NC(C)=O)C(N)=O (HELM PEPTIDE1{[ac].R.C.G.[Nle].[am]}$$$$V2.0)	–	–	–
